According to ChEMBL document CHEMBL1201862, “PubChem BioAssay data set” (2004):
Active and inactive are the calls of the source.

Experiments:
[1] = biological target: T1, Carboxy-terminal domain RNA polymerase II polypeptide A small phosphatase 1 (Homo sapiens, UniProt Q9GZU7); assay: CTDSP1 inhibitors, concentration-response, biochemical, absorbance readout, ultra-high-throughput screen actives (AID 540297); type: functional
T1 sequence (Q9GZU7 whole entry): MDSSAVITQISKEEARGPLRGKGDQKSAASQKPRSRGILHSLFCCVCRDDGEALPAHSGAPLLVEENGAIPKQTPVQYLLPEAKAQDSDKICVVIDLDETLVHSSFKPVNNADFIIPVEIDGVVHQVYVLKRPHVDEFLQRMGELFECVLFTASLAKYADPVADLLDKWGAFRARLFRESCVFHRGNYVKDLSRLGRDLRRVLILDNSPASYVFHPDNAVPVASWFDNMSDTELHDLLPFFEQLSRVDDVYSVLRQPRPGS

[2] = biological target: T2, Low molecular weight phosphotyrosine protein phosphatase (Homo sapiens, UniProt P24666); type: functional; details: read-out: IC50_Mean;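 also: Dose-response confirmation assay measuring inhibition of LMPTP enzyme activity by fluorescence intensity read-out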
T2 sequence (P24666 whole entry): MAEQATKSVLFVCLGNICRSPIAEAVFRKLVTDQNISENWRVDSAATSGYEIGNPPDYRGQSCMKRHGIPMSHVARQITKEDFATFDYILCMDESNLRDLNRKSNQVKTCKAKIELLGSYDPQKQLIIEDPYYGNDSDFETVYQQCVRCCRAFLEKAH

[3] = biological target: Glucose-6-phosphate 1-dehydrogenase (Homo sapiens, UniProt P11413); assay: inhibition of Homo sapiens G6PD, dose series – biochemical, fluorescence, selectivity assay for P. falciparum G6PD inhibitor project, dose response (AID 504792); type: functional
Chain of Glucose-6-phosphate 1-dehydrogenase (P11413 whole entry): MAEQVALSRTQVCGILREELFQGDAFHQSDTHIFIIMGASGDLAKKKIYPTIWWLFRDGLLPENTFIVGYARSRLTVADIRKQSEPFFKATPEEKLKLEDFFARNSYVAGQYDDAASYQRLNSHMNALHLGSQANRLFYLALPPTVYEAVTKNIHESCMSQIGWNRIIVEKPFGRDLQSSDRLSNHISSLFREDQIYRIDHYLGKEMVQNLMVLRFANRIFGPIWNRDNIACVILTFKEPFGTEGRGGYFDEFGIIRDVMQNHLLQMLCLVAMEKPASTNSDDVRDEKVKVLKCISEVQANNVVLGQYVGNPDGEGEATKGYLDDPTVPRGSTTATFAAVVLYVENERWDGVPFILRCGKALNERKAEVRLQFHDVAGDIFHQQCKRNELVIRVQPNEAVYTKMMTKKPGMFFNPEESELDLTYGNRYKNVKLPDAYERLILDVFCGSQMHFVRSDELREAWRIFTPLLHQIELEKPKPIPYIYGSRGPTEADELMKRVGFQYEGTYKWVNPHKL

Nonstructural protein 1 = Nonstructural protein 1 (Influenza A virus, UniProt Q194T2); type: functional, Influenza A virus (A/California/07/2009(H1N1))
Chain of Nonstructural protein 1 (Q194T2 whole entry): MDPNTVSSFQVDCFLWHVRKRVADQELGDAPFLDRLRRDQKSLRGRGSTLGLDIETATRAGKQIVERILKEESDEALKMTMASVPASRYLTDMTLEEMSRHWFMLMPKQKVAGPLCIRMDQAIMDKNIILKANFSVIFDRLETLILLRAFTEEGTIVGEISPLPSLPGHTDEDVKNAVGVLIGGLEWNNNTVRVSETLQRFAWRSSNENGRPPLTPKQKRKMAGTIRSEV

H9c2 = assay: cells; type: functional, cell-based; details: Rattus norvegicus, H9c2, Myocardium
Estrogen receptor beta [4] = biological target: T3, Estrogen receptor beta (Homo sapiens, UniProt Q92731);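 also: recombinant ER-beta bound to coactivator SRC1 peptide in presence of estradiol agonist; inhibitors block coactivator peptide binding and lower the FRET signal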
T3 sequence (Q92731 whole entry): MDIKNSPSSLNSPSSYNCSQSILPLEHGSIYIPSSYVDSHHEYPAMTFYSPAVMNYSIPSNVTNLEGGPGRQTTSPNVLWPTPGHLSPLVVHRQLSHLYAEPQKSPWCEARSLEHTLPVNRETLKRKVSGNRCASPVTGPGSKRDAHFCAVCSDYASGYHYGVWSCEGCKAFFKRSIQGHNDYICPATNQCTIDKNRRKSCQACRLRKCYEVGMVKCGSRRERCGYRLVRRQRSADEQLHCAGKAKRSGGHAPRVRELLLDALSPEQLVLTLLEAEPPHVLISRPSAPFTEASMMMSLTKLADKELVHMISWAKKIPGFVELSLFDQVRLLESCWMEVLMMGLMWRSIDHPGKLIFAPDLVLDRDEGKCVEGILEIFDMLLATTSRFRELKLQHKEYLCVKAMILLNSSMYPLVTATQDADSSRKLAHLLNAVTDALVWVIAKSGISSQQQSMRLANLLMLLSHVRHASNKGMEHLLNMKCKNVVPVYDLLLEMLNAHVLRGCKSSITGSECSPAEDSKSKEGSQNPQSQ

Estrogen receptor beta [5] = biological target: T3, Estrogen receptor beta; assay: blockers of SRC-3 recruitment to ERβ – biochemical, ELISA, streptavidin-HRP readout, orthogonal assay, confirmation (AID 1060)
[6] = biological target: T4, Corticotropin-releasing factor receptor 2/Corticotropin-releasing factor-binding protein (Homo sapiens, UniProt P24387+Q13324); assay: Dose Response confirmation of uHTS hits for small molecule antagonists of the CRF-binding protein and CRF-R2 receptor complex.; type: functional; details: read-out: IC50_Mean
T4 sequence (Q13324 whole entry): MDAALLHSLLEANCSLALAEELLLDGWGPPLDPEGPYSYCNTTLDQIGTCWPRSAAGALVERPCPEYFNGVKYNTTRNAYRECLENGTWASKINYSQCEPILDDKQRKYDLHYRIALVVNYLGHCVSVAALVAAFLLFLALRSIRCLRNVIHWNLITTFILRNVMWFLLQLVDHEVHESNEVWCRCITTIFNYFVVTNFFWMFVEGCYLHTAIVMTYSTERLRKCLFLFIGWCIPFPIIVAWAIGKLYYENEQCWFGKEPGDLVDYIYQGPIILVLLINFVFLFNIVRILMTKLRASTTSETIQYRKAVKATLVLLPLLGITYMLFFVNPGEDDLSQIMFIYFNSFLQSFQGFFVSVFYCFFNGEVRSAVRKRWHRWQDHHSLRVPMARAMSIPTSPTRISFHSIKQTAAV
T4 sequence (P24387 whole entry): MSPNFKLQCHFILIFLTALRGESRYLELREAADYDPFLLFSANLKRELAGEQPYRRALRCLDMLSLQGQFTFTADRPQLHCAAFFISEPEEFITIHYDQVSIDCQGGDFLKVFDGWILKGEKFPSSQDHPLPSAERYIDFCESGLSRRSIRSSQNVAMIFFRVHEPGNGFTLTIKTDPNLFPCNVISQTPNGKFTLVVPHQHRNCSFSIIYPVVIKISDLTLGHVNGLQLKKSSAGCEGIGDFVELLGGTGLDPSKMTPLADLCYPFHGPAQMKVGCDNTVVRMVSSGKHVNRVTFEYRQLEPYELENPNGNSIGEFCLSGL

[7] = biological target: T4, Corticotropin-releasing factor receptor 2/Corticotropin-releasing factor-binding protein; assay: activators of CRF receptor 2 with binding protein – uHTS hits, confirmation (AID 602473); type: functional; details: read-out: EC50_Mean
[8] = biological target: Glyceraldehyde-3-phosphate dehydrogenase (Homo sapiens, UniProt P04406)
Chain of Glyceraldehyde-3-phosphate dehydrogenase (P04406 whole entry): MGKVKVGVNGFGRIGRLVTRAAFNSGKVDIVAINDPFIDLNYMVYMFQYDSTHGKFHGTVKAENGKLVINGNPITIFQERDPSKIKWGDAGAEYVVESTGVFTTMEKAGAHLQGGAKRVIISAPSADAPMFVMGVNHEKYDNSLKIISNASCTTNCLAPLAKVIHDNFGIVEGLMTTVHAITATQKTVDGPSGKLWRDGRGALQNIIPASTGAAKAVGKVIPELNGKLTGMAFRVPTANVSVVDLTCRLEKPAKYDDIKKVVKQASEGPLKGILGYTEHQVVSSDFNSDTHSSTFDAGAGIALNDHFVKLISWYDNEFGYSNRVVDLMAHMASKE

[9] = biological target: T5, Tyrosyl-DNA phosphodiesterase 2 (Homo sapiens, UniProt O95551); assay: potency against TDP2 phosphodiesterase activity – biochemical, epi absorbance, IC50, dose response (AID 743297)
T5 sequence (O95551 whole entry): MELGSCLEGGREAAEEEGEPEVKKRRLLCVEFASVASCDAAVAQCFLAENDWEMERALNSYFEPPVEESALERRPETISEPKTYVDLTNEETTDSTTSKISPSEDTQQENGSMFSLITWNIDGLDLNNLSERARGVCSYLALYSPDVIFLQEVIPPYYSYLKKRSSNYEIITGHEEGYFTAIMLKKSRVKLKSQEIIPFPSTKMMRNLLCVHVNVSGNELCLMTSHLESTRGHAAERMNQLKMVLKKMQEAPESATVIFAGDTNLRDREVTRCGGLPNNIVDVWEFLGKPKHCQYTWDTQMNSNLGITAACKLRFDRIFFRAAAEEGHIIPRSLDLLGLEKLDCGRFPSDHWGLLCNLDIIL

Large T antigen = Large T antigen (Simian virus 40, UniProt P03070); type: functional, Betapolyomavirus macacae;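 also: Confirmatory-stage PubChem screen for compounds that inhibit SV40 T antigen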
Chain of Large T antigen (P03070 whole entry): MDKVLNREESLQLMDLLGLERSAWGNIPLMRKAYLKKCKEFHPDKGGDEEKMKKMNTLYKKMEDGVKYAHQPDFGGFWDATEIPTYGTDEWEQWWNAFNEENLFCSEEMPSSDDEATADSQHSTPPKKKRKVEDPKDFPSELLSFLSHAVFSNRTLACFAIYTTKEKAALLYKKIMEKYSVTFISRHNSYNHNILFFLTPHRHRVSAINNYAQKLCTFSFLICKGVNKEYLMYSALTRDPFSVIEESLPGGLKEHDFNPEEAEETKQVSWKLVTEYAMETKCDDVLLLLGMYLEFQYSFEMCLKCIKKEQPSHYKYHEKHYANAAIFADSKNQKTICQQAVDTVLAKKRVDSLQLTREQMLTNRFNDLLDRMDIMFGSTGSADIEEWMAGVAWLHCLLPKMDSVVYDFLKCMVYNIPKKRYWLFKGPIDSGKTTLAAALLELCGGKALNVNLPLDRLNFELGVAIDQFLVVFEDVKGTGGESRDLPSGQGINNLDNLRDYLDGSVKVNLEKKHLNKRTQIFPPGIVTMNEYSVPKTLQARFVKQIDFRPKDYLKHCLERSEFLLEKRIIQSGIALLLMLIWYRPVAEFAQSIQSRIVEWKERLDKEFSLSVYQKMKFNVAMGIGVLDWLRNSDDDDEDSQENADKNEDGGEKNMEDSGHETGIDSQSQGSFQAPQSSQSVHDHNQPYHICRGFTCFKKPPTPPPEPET

[10] = luciferase reporter signal suppression in cells – H4 neuroglioma cells, luminescence, dose response (AID 1990); type: functional, cell-based
[11] = Luminescence Cell-Based Dose Response HTS to Identify Inhibitors of 5'UTR Stem-Loop Driven Prion Protein mRNA Translation in H4 Neuroglioblastoma Cells. [Related pubchem assays: 1827 (Project Summary), 1813 (Primary HTS)]; type: functional
[12] = alpha-synuclein stem-loop luciferase translation blockers – H4 neuroglioma cells, luminescence, confirmation (AID 1988); type: functional, cell-based
[13] = A549 cell cytotoxicity, dose response, cytotoxicity control, plate reader, cherry-pick, antagonist series (AID 743412); type: functional, cell-based
[14] = blockers of bursicon-stimulated LGR2 cAMP reporter – cell-based, HEK293, CRE-luciferase reporter, cherry pick, set 2, dose response (AID 743343); type: functional;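 also: transfected cells were stimulated with diluted bursicon conditioned medium after compound addition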
[15] = viability loss in HEK293 cells – cell-based, plate reader, cherry-picked samples, cytotoxicity control, dose response (AID 743446); type: functional
P388/ADR = assay: cells; type: functional; details: Mus musculus
SN12K1 = assay: cells; type: functional; details: Homo sapiens
P388 = assay: cells; type: functional; details: Mus musculus
Cytochrome P450 2D6 = Cytochrome P450 2D6 (Homo sapiens, UniProt P10635);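 also: CYP2D6 member of a cytochrome P450 panel assay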
Chain of Cytochrome P450 2D6 (P10635 whole entry): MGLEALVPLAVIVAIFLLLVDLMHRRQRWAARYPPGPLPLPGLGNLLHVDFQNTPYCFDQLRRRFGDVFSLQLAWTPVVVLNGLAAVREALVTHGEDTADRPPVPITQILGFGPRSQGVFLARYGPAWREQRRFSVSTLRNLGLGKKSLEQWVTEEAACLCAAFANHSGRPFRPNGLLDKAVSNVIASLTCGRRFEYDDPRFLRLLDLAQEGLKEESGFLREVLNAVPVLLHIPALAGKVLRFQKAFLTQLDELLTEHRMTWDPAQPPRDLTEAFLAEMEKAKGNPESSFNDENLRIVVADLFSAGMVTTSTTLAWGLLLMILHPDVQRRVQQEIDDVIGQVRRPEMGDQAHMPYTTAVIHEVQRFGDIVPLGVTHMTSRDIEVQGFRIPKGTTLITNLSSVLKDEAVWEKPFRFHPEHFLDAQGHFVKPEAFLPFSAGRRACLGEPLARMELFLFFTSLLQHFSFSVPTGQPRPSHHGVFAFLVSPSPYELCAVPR

[16] = intracellular Trypanosoma cruzi inhibitors in host cells – cell-based, plate reader, cherry-pick samples, set 3, dose response (AID 651818); type: functional;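 also: compounds incubated with infected cells for about four days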
[17] = toxicity toward HepG2 liver cells – cell-based, plate reader, cherry-pick, antagonist series, cytotoxicity control, dose response (AID 743416); type: functional
[18] = blockade of melanocortin 4 receptor signaling – cell-based, plate reader, cherry pick, counter-screen for LGR2 antagonist project, dose response (AID 743444); type: functional;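 also: transfected HEK 293 cells stimulated with alpha-MSH peptide; potency of inhibitors of the alpha-MSH evoked signal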
[19] = Luminescent dose response cell-based high throughput screening assay for inhibitors of the Janus kinase 2 mutant JAK2V617F. [Related pubchem assays: 1446 (Primary screen.), 1521 (Confirmation assay.), 1486 (Counter screen.)]; type: functional

## O=C(Nc1ccc(S(=O)(=O)Nc2nccs2)cc1)c1nn(-c2ccc(F)cc2)ccc1=O
[1]
  IC50: 4.55 µM (active)
[2]
  IC50: 22.3 µM (inactive)

## O=C(Nc1ccccn1)c1sc2cc([N+](=O)[O-])ccc2c1Cl
[3]
  IC50: > 80 µM (inactive)

## O=C(Nc1nc(-c2ccccn2)cs1)c1cc(S(=O)(=O)N2CCOCC2)ccc1F
Nonstructural protein 1
  IC50: 7.21 µM (active)
H9c2
  IC50: 39.8 µM (inactive)

## COCCn1c(C)cc(C(=O)COC(=O)c2cc3c(s2)CCC3)c1C
Estrogen receptor beta [4]
  IC50: > 50 µM (not active)
Estrogen receptor beta [5]
  IC50: 14.9 µM (active)
[1]
  IC50: 7.35 µM (active)
[6]
  IC50: > 47.1 µM (inactive)
[7]
  EC50: > 53 µM (inactive)

## O=C1C(Cl)=C(N2CCN(Cc3ccc4c(c3)OCO4)CC2)C(=O)N1c1ccnc(Cl)c1
[8]
  IC50: > 50 µM (inconclusive)

## Cc1ccccc1OCC(=O)NCC(=O)OCC(=O)c1ccc([N+](=O)[O-])cc1
[3]
  IC50: > 80 µM (inactive)

## CC1=NN(c2ccc(C)c(C)c2)C(=O)/C1=C/c1ccc2c(c1)n(C)c(=O)n2C
[9]
  IC50: > 128 µM (inactive)

## Nc1ccc2[nH]c(CCCCCCCCc3nc4cc(N)ccc4[nH]3)nc2c1
Large T antigen
  IC50: 18.7 µM (active)
[2]
  IC50: 11.4 µM (active)

## CC1CN(c2ccccc2)NC1=O (centres undefined)
[3]
  IC50: 41.2 µM (inactive)

## O=C(CSc1n[nH]c(-c2ccccn2)n1)Nc1ccc(F)cc1
[10]
  EC50: 12.6 µM (active)
[11]
  EC50: 11.5 µM (active)
[12]
  EC50: > 120 µM (not active)
Nonstructural protein 1
  IC50: 5.65 µM (active)

## COc1ccc(-c2cc(-c3nnc(COC(=O)C4CC4)o3)c3ccccc3n2)cc1OC
H9c2
  IC50: > 79 µM (inactive)
[13]
  AC50: > 52 µM (inactive)
[14]
  AC50: 43.2 µM (active)
[15]
  AC50: > 52 µM (inactive)

## Cc1ccccc1N/C(SCc1cccc(Br)c1)=C(/C#N)C(N)=O
[3]
  IC50: > 80 µM (inactive)

## COc1cccc(N2C(=O)C(Cl)=C(N3CCN(Cc4ccccc4)CC3)C2=O)c1
[8]
  IC50: > 50 µM (inconclusive)

## CC(=O)Nc1cc2c(cc1[N+](=O)[O-])-c1ccccc1C2O (centres undefined)
[3]
  IC50: > 80 µM (inactive)

## Cc1cc(N2CCN(C(=O)Nc3ccccc3C#N)CC2)c2ccccc2n1
[2]
  IC50: 21.3 µM (inactive)

## COC1(OC)C=CC(=O)C=C1NC(=O)c1ccccc1OC(C)=O
[3]
  IC50: > 80 µM (inactive)
[6]
  IC50: > 47.1 µM (inactive)
[7]
  EC50: > 53 µM (inactive)

## CCN(CC)CC[n+]1ccc2c(C)c3[nH]c4ccc(O)cc4c3c(C)c2c1
P388/ADR
  GI50: 2.21 µM (inactive)
SN12K1
  GI50: 0.948 µM (active)
P388
  GI50: 0.012 µM (active)
Cytochrome P450 2D6
  AC50: 6.31 µM (inconclusive)

## CC1=C2C(O)C(C(C)C(=O)NC(C)C)CCC2(C)C=CC1=O (centres undefined)
P388/ADR
  GI50: > 100 µM (inactive)
SN12K1
  GI50: > 100 µM (inactive)
P388
  GI50: > 100 µM (inactive)

## CN(C)CC1CCCC(CN(C)C)C1=O (centres undefined)
P388/ADR
  GI50: 0.0164 µM (active)
SN12K1
  GI50: 16.3 µM (inactive)
P388
  GI50: 0.0614 µM (active)

## Cc1ccc(N2C(=O)C3CSCN3C2=O)cc1 (centres undefined)
P388/ADR
  GI50: > 100 µM (inactive)
SN12K1
  GI50: > 100 µM (inactive)
P388
  GI50: > 100 µM (inactive)

## C[C@H]1CN([C@@H](C)CO)C(=O)Cc2cc(NC(=O)Nc3ccc4c(c3)OCO4)ccc2O[C@H]1CN(C)Cc1ccc(C(F)(F)F)cc1
[16]
  AC50: 7.92 µM (active)

## C[C@H](CO)N1C[C@H](C)[C@H](CN(C)Cc2ccc(-c3ccccc3)cc2)Oc2c(NC(=O)Nc3ccc(C(F)(F)F)cc3)cccc2C1=O
[16]
  AC50: 6 µM (active)

## C[C@@H]1CN([C@H](C)CO)C(=O)c2cccc(NC(=O)Nc3ccc4c(c3)OCO4)c2O[C@@H]1CN(C)Cc1ccc(C(=O)Nc2ccccc2N)cc1
[16]
  AC50: 2.84 µM (active)

## Cc1noc(C)c1S(=O)(=O)Nc1ccc2c(c1)CC(=O)N([C@H](C)CO)C[C@@H](C)[C@H](CN(C)Cc1ccc(Oc3ccccc3)cc1)O2
[16]
  AC50: 6.34 µM (active)

## C[C@H](CO)N1C[C@H](C)[C@H](CN(C)Cc2ccncc2)Oc2ncc(C#CCC3CCCCC3)cc2C1=O
[13]
  AC50: 16.1 µM (active)
[17]
  AC50: 15.3 µM (active)
[14]
  AC50: 30 µM (active)
[18]
  AC50: 63.3 µM (active)

## Cc1c(N/N=C2\C(=O)NC(=O)N(c3ccc(Br)cc3)C2=O)c(=O)n(-c2ccccc2)n1C
Nonstructural protein 1
  IC50: 6.25 µM (active)

## Oc1ccc(/C=N/N2CCN(C3c4ccccc4-c4ccccc43)CC2)cc1O
[19]
  IC50: 3.62 µM (active)

## CC(=O)OC1CCC2(C)C3CCC4(C)C(c5ccc(=O)oc5)CC5OC54C3CCC2(O)C1 (centres undefined)
P388/ADR
  GI50: > 200 µM (inactive)
SN12K1
  GI50: 0.948 µM (active)
P388
  GI50: > 200 µM (inactive)

## CCOC(=O)Nc1ccc2c(c1)N(C(=O)CCN(CC)CC)c1ccccc1S2 [ETHACIZINE]
SN12K1
  GI50: 33.6 µM (inactive)
P388
  GI50: 9.46 µM (inactive)
